Measurements reported in patent US20050245465A1, “Compounds for treating Alzheimer's disease and for inhibiting beta-amyloid peptitde production” (priority 2004, published 2005).
“Also recorded” adds a separate entry of the source. Where two headings read alike, the source gives them in different places.

Assays:
[1] = test system: CHO cells expressing human APP; assay: Secreted Aβ40/Aβ42 ELISA in medium of CHO-APP cells; assay type: cell-based, Chinese hamster; design: key to Aβ42-lowering activity: Aβ42-lowering activity (“Yes”); no profound effects (“No”); non-determined (“ND”); Ginsenosides that affected cell viability are indicated as “Cytotoxic.”; settings: for Aβ42-lowering activity: Tables 1-3; for secretion of Aβ42 (initial screening): heat-processing derived ginsenosides; for production of Aβ42 in cells (summary statement): mammalian cells, in vitro; for Aβ42 in the medium, dose-dependence: CHO cells expressing human APP; for generation of Aβ42 (Aβ42 levels in the medium, ELISA, normalized to intracellular full-length APP): CHO cells stably transfected with human APP695, 50 μg/ml, 8 hrs; for Aβ42 vs. Aβ40 in the medium (preference): normalized to non-treated and vehicle-treated cells
Procedure: The CHO cells were treated with the indicated compounds (at 50 μg/ml) for 8 hrs. Aβ42 levels in the medium were measured by ELISA and normalized to intracellular full-length APP.
The potential effects of ginsenosides and their analogues in treating AD were examined. First, a number of ginsenosides were screened based on their effects on Aβ generation. The effects of various ginsenosides on Aβ (e.g., Aβ40 and Aβ42) production was initially accessed by incubating the Chinese hamster ovary (CHO) cells expressing human APP(CHO-APP cells) with each ginsenoside purified from unprocessed ginseng (known as “white ginseng”). These representative ginsenosides included Rb1, Rb2, Rc, Rd, Re, Re, Rg1 and Rg2 and differ in their side chains and sugar moieties.
After 8 hours of incubation, the media were collected and the levels of secreted Aβ40 and Aβ42 were determined by ELISA.
Steaming ginseng at high temperature gave rise to additional ginsenosides with enhanced pharmacological activity, including (20S)Rg3, Rk1 and Rg5 (22-25). Next, the effects of these heat-processing derived ginsenosides (e.g., (20S)Rg3, Rh1, Rh2, Rk1, Rg6, Rg5) on Aβ40 and Aβ42 generation were tested. […] In contrast, Aβ42 levels were not affected by (20R)Rg3, Rh1, and Rg6. Aβ40 levels were not changed by treatment with any of the ginsenosides tested. The potency of Aβ42-lowering activity was highest with Rk1 and (20S)Rg3. […] The secretion of Aβ40 was affected by treatment with Rk1 only at very high concentration (˜100 μM) and cell viability was not affected by treatment of Rk1 under these conditions (up to 100 μM, 8 hour treatment; data not shown). […] Overnight treatment with Rgk351, Rk1, and Rg5 also reduce Aβ42 production in CHO-APP cells (FIG. 12B). […] These studies provide a structure-activity relationship between the chemical structures of ginsenosides and Aβ42-lowering activity, further providing the basis for designing additional Aβ42-lowering analogues as well as for defining a class of compounds that harbor Aβ42-lowering activity.

CHO-APP/PS1 cells = assay: Secreted Aβ40/Aβ42 ELISA in CHO-APP/PS1 cells; assay type: cell-based, Chinese hamster; settings: for Aβ42 levels: CHO cells co-expressing human APP with wild-type PS1 or FAD mutant PS1 (delta E9, L286V)
Procedure: (§1) FIG. 10 depicts the effects of native ginsenosides on Aβ42 production. CHO cells stably transfected with human APP695 together with either wild-type (A, CHO-APP/PS1 cells) or ΔE9 FAD mutant (B, CHO-APP/ΔE9PS1 cells) forms of PS1 were used. Cells were treated with the indicated compounds (at 50 μM) for 8 hrs. Levels of secreted Aβ40 and Aβ42 in the medium were determined by ELISA and normalized to intracellular full-length APP. In CHO-APP/PS1 cells, average Aβ amounts in control samples were 320 pM for Aβ40 and 79 pM for Aβ42. The relative levels of Aβ and Aβ42 were normalized to values obtained from non-treated and vehicle-treated cells and are shown as % to control+s.d.). One of three representative experiments are shown.
(§2) CHO-APP/PS1 (A) and CHO-APP/ΔE9PS1 (B) cells were treated with the indicated compounds at 50 μM for 8 hrs and the levels of secreted Aβ40 and Aβ42 were determined as described in FIG. 1. […] The PS1-ΔE9 FAD mutation diminished the Aβ42 response to Rk1 treatment (B).

CHO-APP/ΔE9PS1 cells = assay: Secreted Aβ40/Aβ42 ELISA in CHO-APP/ΔE9PS1 cells; assay type: cell-based, Chinese hamster; settings: 50 μM, 8 hrs
Procedure: as §1, §2
Steaming ginseng at high temperature gave rise to additional ginsenosides with enhanced pharmacological activity, including (20S)Rg3, Rk1 and Rg5 (22-25). Next, the effects of these heat-processing derived ginsenosides (e.g., (20S)Rg3, Rh1, Rh2, Rk1, Rg6, Rg5) on Aβ40 and Aβ42 generation were tested. […] In contrast, Aβ42 levels were not affected by (20R)Rg3, Rh1, and Rg6. Aβ40 levels were not changed by treatment with any of the ginsenosides tested. The potency of Aβ42-lowering activity was highest with Rk1 and (20S)Rg3. […] The secretion of Aβ40 was affected by treatment with Rk1 only at very high concentration (˜100 μM) and cell viability was not affected by treatment of Rk1 under these conditions (up to 100 μM, 8 hour treatment; data not shown). […] Overnight treatment with Rgk351, Rk1, and Rg5 also reduce Aβ42 production in CHO-APP cells (FIG. 12B). […]

γ-secretase [2] = assay: Cell-free γ-secretase assay (CHAPSO-solubilized membrane fractions, Aβ ELISA); assay type: biochemical; settings: for Aβ40 and Aβ42 generation in cell-free γ-secretase assay: dose-response
Procedure: (A) CHAPSO-solubilized membrane fractions were incubated with recombinant γ-secretase substrates together with the indicated compounds (at 100 μM) and the levels of Aβ42 and Aβ40 were determined by ELISA as described (27-29). (B) Dose-response of Aβ40 and Aβ42-lowering activity of Rk1 and (20S)Rg3 in a cell-free γ-secretase assay.
Next, the inhibitory effects of Rk1 and (20S)Rg3 on Aβ generation in an in vitro γ-secretase assay was studied. […] In contrast, naproxen, an NSAID without Aβ42-lowering activity, had no effects on Aβ42 production (FIG. 15A).

CHO-APP cells = assay: Mass spectrometric analysis of Aβ species from CHO-APP cells; assay type: cell-based, Chinese hamster; settings: mass spectrometry, vs DMSO
Procedure: Note that treatment leads to a decrease in Aβ42 species (1-42), and elevation in both Aβ37 (1-37) and Aβ38 (1-38). Mass spectrometric analysis of Aβ species were performed as previously described (Wang R, Sweeny D, Gandy S E, Sisodia S S. The profile of soluble amyloid β-protein in cultured cell media. J. Bio. Chem. 1996; 271: 31894-31902).

[3] = test system: primary embryonic cortical neurons derived from Tg2576 transgenic mice; assay: Aβ40 and Aβ42 secretion in primary embryonic cortical neurons; assay type: cell-based
Source text: Treatment of Rk1 and Rg3 decreased the level of secreted Aβ40 and Aβ42.

APP = assay: Western blot of APP processing in CHO-APP and Neuro2a-APPsw cells; assay type: cell-based, Chinese hamster and mouse; settings: cell lysates; for APP C-terminal fragments (γ-secretase substrates): CHO-APP and Neuro2a APPsw cells
Source text: FIG. 13. depicts an analysis of APP processing after Rk1 treatment. Steady-state levels of full-length APP and APP C-terminal fragments (APP-CTFs) were examined by Western blot analysis using anti-R1 antibody. […] Correlated Aβ42 levels for each sample are shown in the bottom panel.

CHO cells = assay: Cell viability of treated CHO cells; assay type: cell-based, Chinese hamster
Procedure: as §2
Tables 1-3 Structure of ginsenosides utilized in the study and their effects on Aβ42 generation. They differ at the two or three side chains attached to the common triterpene backbone known as dammarane. The common structure skeleton for each group of ginsenosides is shown in the top panel. Ginsenosides that harbor Aβ42-lowering activity are indicated in the far right column of the tables: Aβ42-lowering activity (“Yes”), no profound effects (“No”), and non-determined (“ND”). Ginsenosides that affected cell viability are indicated as “Cytotoxic.” Abbreviation for carbohydrates are as follows: Glc, D-glucopyranosyl; Ara (pyr), L-arabinopyranosyl; Ara (fur), L-arabinofuranyosyl; Rha, L-rhamnopyranosyl.
Steaming ginseng at high temperature gave rise to additional ginsenosides with enhanced pharmacological activity, including (20S)Rg3, Rk1 and Rg5 (22-25). Next, the effects of these heat-processing derived ginsenosides (e.g., (20S)Rg3, Rh1, Rh2, Rk1, Rg6, Rg5) on Aβ40 and Aβ42 generation were tested. […] In contrast, Aβ42 levels were not affected by (20R)Rg3, Rh1, and Rg6. […]

γ-secretase [4] = assay: Cell-free generation of intracellular domains (AICD, NICD, p75-ICD) in membrane fractions of 293 cells; assay type: biochemical; settings: membrane fractions from 293 cells overexpressing APP, Notch-ΔE or p75-ΔE
Procedure: Membrane fractions isolated from 293 cells overexpressing either APP (A), Notch-ΔE (B) or p75-ΔE (C) and incubated in the presence of indicated compounds: Compound E (CpdE, general γ-secretase inhibitor), Rgk351, Rk1 and sulindac sulfide (SS).
Since the effect of Rk1 was rather selective to Aβ42 (but not Aβ40) in a cell-based assay, the question of whether Rk1 affects other γ-secretase-mediated cleavage events, including the generation of AICD resulted from a transmembrane cleavage of APP distal from either Aβ40 or Aβ42 site, and γ-secretase-mediated intramembrane cleavage of Notch1 or p75 neurotrophin receptor (p75NTR) to yield Notch1 or p75NTR intracellular domains (NICD or p75-ICD, respectively) was tested. The cell-free generation of AICD, NICD and p75-ICD was not affected by incubation with Rgk351 or Rk1 (FIG. 5).

[5] = cell-free γ-secretase assay, read-out: IC50 for Aβ40
[6] = cell-free γ-secretase assay, read-out: IC50 for Aβ42
[7] = overnight treatment, CHO-APP cells

Compound | potency of Aβ42-lowering activity (comparison among ginsenosides) [1] | Aβ42-lowering activity [1] | secretion of Aβ42 (initial screening) [1] | production of Aβ42 in cells (summary statement) [1] | potency of Aβ42-reducing activity (order) (CHO-APP/PS1 cells; 50 μM, 8 hrs) | Aβ42-lowering response in PS1 ΔE9 FAD mutant cells vs PS1 wild-type cells (CHO-APP/ΔE9PS1 cells) | IC50 (γ-secretase [2]; [5]) | IC50 (γ-secretase [2]; [6]) | Aβ40 and Aβ42 generation in cell-free γ-secretase assay (γ-secretase [2]) | Aβ37 (1-37) and Aβ38 (1-38) (CHO-APP cells) | Aβ42 species (1-42) (CHO-APP cells) | level of secreted Aβ40 and Aβ42 [3] | Aβ42 in the medium, dose-dependence [1] | generation of Aβ42 (Aβ42 levels in the medium, ELISA, normalized to intracellular full-length APP) [1] | Aβ42 vs. Aβ40 in the medium (preference) ([1]; CHO-APP cells) | Aβ42 production [1, 7] | Aβ42 levels (CHO-APP/PS1 cells) | full-length APP levels (APP) | APP C-terminal fragments (γ-secretase substrates) (APP) | other results
CC(C)=CCC[C@](C)(O)[C@H]1CC[C@]2(C)[C@@H]1[C@H](O)C[C@@H]1[C@@]3(C)CC[C@H](O[C@@H]4O[C@H](CO)[C@@H](O)[C@H](O)[C@H]4O[C@@H]4O[C@H](CO)[C@@H](O)[C@H](O)[C@H]4O)C(C)(C)[C@@H]3CC[C@]12C [(20S)Rg3] | highest | Yes | selectively lowered | lower | Rk1>/=(20S)Rg3>Rg5>(20R)Rg3 | diminished | 27 ± 4 µM | 26 ± 7 µM | inhibits; also recorded: inhibited both Aβ40 and Aβ42 with a similar potency | elevation | decrease | decreased |  |  |  |  |  |  |  | 
CC(C)=CC/C=C(\C)[C@H]1CC[C@]2(C)[C@@H]1[C@H](O)C[C@@H]1[C@@]3(C)CC[C@H](O[C@@H]4O[C@H](CO)[C@@H](O)[C@H](O)[C@H]4O[C@@H]4O[C@H](CO)[C@@H](O)[C@H](O)[C@H]4O)C(C)(C)[C@@H]3CC[C@]12C [Rg5] | much smaller as compared to Rgk351 and Rk1; also recorded: less effective | Yes | selectively lowered | lower | Rk1>/=(20S)Rg3>Rg5>(20R)Rg3 | diminished |  |  |  |  |  |  | reduced; also recorded: lower Aβ42 in a dose-dependent manner | reduce | preferentially reduced Aβ42 (vs. Aβ40) | reduce | much smaller as compared to Rgk351 and Rk1 | not affected | increased accumulation | 
CC(C)=CCC[C@](C)(O)[C@H]1CC[C@]2(C)[C@@H]1[C@H](O)C[C@@H]1[C@@]3(C)CC[C@H](O[C@@H]4O[C@H](CO)[C@@H](O)[C@H](O)[C@H]4O)C(C)(C)[C@@H]3CC[C@]12C [Rh2] |  |  |  |  |  |  |  |  |  |  |  |  |  |  |  |  |  |  |  | Aβ42-lowering effects (CHO-APP/PS1 cells; 50 μM, 8 hrs): exhibited Aβ42-lowering effects; cell viability (CHO cells; 50 μM treatment): partially affected
C=C(CCC=C(C)C)[C@H]1CC[C@]2(C)[C@@H]1[C@H](O)C[C@@H]1[C@@]3(C)CC[C@H](O[C@@H]4O[C@H](CO)[C@@H](O)[C@H](O)[C@H]4O[C@@H]4O[C@H](CO)[C@@H](O)[C@H](O)[C@H]4O)C(C)(C)[C@@H]3CC[C@]12C [Rk1] | most effective; also recorded: highest | Yes | selectively lowered | lower | Rk1>/=(20S)Rg3>Rg5>(20R)Rg3 | diminished | 27 ± 3 µM | 32 ± 5 µM | inhibits; also recorded: inhibited both Aβ40 and Aβ42 with a similar potency | elevation | decrease | decreased | reduced; also recorded: lower Aβ42 in a dose-dependent manner | reduce | preferentially reduced Aβ42 (vs. Aβ40); also recorded: preferentially lowers Aβ42 (vs. Aβ40) | reduce | reduced | not affected; also recorded: did not affect | increased accumulation; also recorded: up-regulated | concentration at which secretion of Aβ40 was affected ([1]; 8 hour treatment): ~100 µM; IC50 ([1]; CHO-APP cells, read-out: IC50 of Aβ42 lowering activity): ~20 µM; Aβ40 production [1, 7]: slightly affected; Aβ42 generation in vitro (γ-secretase [2]; cell-free γ-secretase assay, partially purified γ-secretase complex, 100 μM): inhibit; also recorded: potently inhibited; cell-free generation of AICD, NICD and p75-ICD (γ-secretase [4]): does not significantly affect; also recorded: not affected; cell viability (CHO cells; up to 100 μM, 8 hour treatment): not affected
